Assay results from ChEMBL document CHEMBL1201862, “PubChem BioAssay data set” (2004).
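The compound was tested at five concentrations on cells cultured in 96-well plates, with a 48-hour exposure period. Here, GI50 denotes the concentration required for 50% inhibition of growth.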 Activity calls are given as the source filed them. No stated cut-off is given here; in the data, active = GI50 up to about 1.1 µM and inactive = higher.

Experiments:
Assay in all cases: growth of human tumour cells (NCI), 48 h
OVCAR-4 = test system: OVCAR-4
NCI-H522 = test system: NCI-H522
SF-539 = test system: SF-539
Malme-3M = test system: Malme-3M
SK-MEL-2 = test system: SK-MEL-2
A498 = test system: A498
HL-60 = test system: HL-60
OVCAR-3 = test system: OVCAR-3
ACHN = test system: ACHN
RPMI-8226 = test system: RPMI-8226
NCI-H460 = test system: NCI-H460
TK-10 = test system: TK-10
UACC-62 = test system: UACC-62
SW-620 = test system: SW-620
M14 = test system: M14
CAKI-1 = test system: CAKI-1

Measured: GI50

COc1ccc(N/N=C(\CCN(C)C)c2ccccc2)cc1
inactive: OVCAR-4 4.67 µM | NCI-H522 10.7 µM | SF-539 1.68 µM | Malme-3M 11.7 µM | SK-MEL-2 4.49 µM | A498 14.9 µM | HL-60 2.82 µM | OVCAR-3 2.81 µM | ACHN 1.36 µM | RPMI-8226 2.39 µM | NCI-H460 3.12 µM | TK-10 2.23 µM | UACC-62 1.9 µM | SW-620 2.86 µM | M14 10.9 µM

Cn1nc(-c2ccccc2)c2c(/C=C/c3ccccc3)onc2c1=O
inactive: NCI-H522 37.3 µM | SF-539 65.8 µM | Malme-3M 71.4 µM | SK-MEL-2 > 100 µM | CAKI-1 69 µM | A498 > 100 µM | HL-60 > 100 µM | OVCAR-3 50.6 µM | ACHN > 100 µM | RPMI-8226 > 100 µM | NCI-H460 > 100 µM | TK-10 > 100 µM | UACC-62 23.8 µM | M14 > 100 µM

CC(C)(C)c1cc(COc2c3sc(=S)sc3c(OCc3cc(C(C)(C)C)cc(C(C)(C)C)c3)c3sc(=S)sc23)cc(C(C)(C)C)c1
inactive: OVCAR-4 > 100 µM | SF-539 > 100 µM | CAKI-1 > 100 µM | A498 > 100 µM | HL-60 > 100 µM | OVCAR-3 > 100 µM | ACHN > 100 µM | RPMI-8226 > 100 µM | NCI-H460 > 100 µM | TK-10 > 100 µM | UACC-62 > 100 µM | SW-620 > 100 µM | M14 > 100 µM

c1cnc2c(c1)-n1cccc1C1(CCSC1)NN2 (stereo not drawn)
inactive: OVCAR-4 > 100 µM | NCI-H522 > 100 µM | SF-539 > 100 µM | Malme-3M > 100 µM | SK-MEL-2 > 100 µM | CAKI-1 > 100 µM | HL-60 > 100 µM | OVCAR-3 > 100 µM | ACHN > 100 µM | RPMI-8226 > 100 µM | NCI-H460 > 100 µM | TK-10 > 100 µM | SW-620 > 100 µM | M14 > 100 µM

COc1nc(NC2OCC(O)C(O)C2O)c(NC2OCC(O)C(O)C2O)c(=O)n1C (stereo not drawn)
inactive: OVCAR-4 > 100 µM | NCI-H522 > 100 µM | SF-539 > 100 µM | Malme-3M > 100 µM | SK-MEL-2 > 100 µM | A498 > 100 µM | HL-60 > 100 µM | OVCAR-3 > 100 µM | ACHN > 100 µM | RPMI-8226 > 100 µM | NCI-H460 > 100 µM | TK-10 > 100 µM | UACC-62 > 100 µM | SW-620 > 100 µM | M14 > 100 µM

NC1CC(n2ccc(=O)[nH]c2=O)OC1C(O)CO (stereo not drawn)
inactive: OVCAR-4 > 100 µM | NCI-H522 > 100 µM | SF-539 > 100 µM | Malme-3M > 100 µM | SK-MEL-2 > 100 µM | HL-60 > 100 µM | OVCAR-3 > 100 µM | ACHN > 100 µM | RPMI-8226 > 100 µM | NCI-H460 > 100 µM | TK-10 > 100 µM | UACC-62 > 100 µM | SW-620 > 100 µM | M14 > 100 µM

NCC(=O)OCN1C(=O)C2C3C=CC(C2C1=O)C1C2C(=O)N(COC(=O)CN)C(=O)C2C31 (stereo not drawn)
inactive: OVCAR-4 20 µM | NCI-H522 12.5 µM | SF-539 30.2 µM | SK-MEL-2 19.4 µM | CAKI-1 53.5 µM | A498 > 100 µM | HL-60 12.4 µM | OVCAR-3 35.7 µM | ACHN 24.5 µM | RPMI-8226 32.1 µM | NCI-H460 16.6 µM | TK-10 31.3 µM | UACC-62 23 µM | SW-620 22.4 µM | M14 20.5 µM

N#CC12CCC(O)C(CC1)C2=O (stereo not drawn)
inactive: OVCAR-4 > 100 µM | NCI-H522 > 100 µM | SF-539 > 100 µM | Malme-3M > 100 µM | SK-MEL-2 > 100 µM | CAKI-1 > 100 µM | A498 > 100 µM | HL-60 > 100 µM | OVCAR-3 > 100 µM | ACHN > 100 µM | RPMI-8226 26.9 µM | NCI-H460 70 µM | TK-10 > 100 µM | UACC-62 > 100 µM | M14 > 100 µM

CCCCc1c2c(nc3c1CCc1cc4c(nc1-3)-c1nc3c(c(CCCC)c1CC4)CCC/C3=C\c1ccccc1)/C(=C/c1ccccc1)CCC2
inactive: NCI-H522 44.1 µM | SF-539 33.5 µM | Malme-3M > 100 µM | SK-MEL-2 35.2 µM | CAKI-1 29.1 µM | A498 > 100 µM | HL-60 62.1 µM | OVCAR-3 40.6 µM | RPMI-8226 > 100 µM | NCI-H460 28.2 µM | TK-10 51.2 µM | UACC-62 97.3 µM | SW-620 67 µM | M14 > 100 µM

COc1cc(C)c(C)c(OC(=O)c2c(C)c(C)c(OC)c(C)c2OC)c1C
inactive: OVCAR-4 10.3 µM | NCI-H522 1.9 µM | SF-539 14.1 µM | Malme-3M 6.9 µM | SK-MEL-2 5.04 µM | CAKI-1 7.26 µM | A498 16.6 µM | HL-60 10 µM | OVCAR-3 2.02 µM | ACHN 13.4 µM | RPMI-8226 13.6 µM | NCI-H460 3.98 µM | TK-10 25.6 µM | UACC-62 6.71 µM | SW-620 3.86 µM | M14 6.75 µM

CC(=O)OC1=C2CC[C@@H]3C(CC[C@@]4(C)C3CC[C@@H]4OC(C)=O)[C@@]2(C)CC(C#N)C1=O (stereo partly drawn)
inactive: OVCAR-4 24.4 µM | SF-539 30.3 µM | Malme-3M 5.58 µM | SK-MEL-2 4.32 µM | A498 6.01 µM | HL-60 16 µM | OVCAR-3 21.2 µM | ACHN 20.8 µM | RPMI-8226 12 µM | NCI-H460 24.4 µM | TK-10 23.6 µM | UACC-62 12.8 µM | SW-620 35.7 µM | M14 25.1 µM

N#CC1(c2nc3ccccc3o2)C(=O)C(=O)N(c2ccc(Cl)c(Cl)c2)C(=O)C1=O
inactive: OVCAR-4 58.6 µM | NCI-H522 > 100 µM | Malme-3M > 100 µM | SK-MEL-2 > 100 µM | CAKI-1 > 100 µM | HL-60 26 µM | OVCAR-3 > 100 µM | ACHN > 100 µM | RPMI-8226 > 100 µM | NCI-H460 > 100 µM | TK-10 > 100 µM | SW-620 > 100 µM | M14 > 100 µM

COC(=O)C(Cc1nc2ccccc2nc1O)C(=O)C(=O)Nc1ccc(OC)cc1[N+](=O)[O-] (stereo not drawn)
inactive: OVCAR-4 > 100 µM | NCI-H522 > 100 µM | SF-539 > 100 µM | Malme-3M > 100 µM | SK-MEL-2 > 100 µM | CAKI-1 > 100 µM | HL-60 > 100 µM | OVCAR-3 > 100 µM | ACHN > 100 µM | RPMI-8226 > 100 µM | NCI-H460 > 100 µM | TK-10 > 100 µM | UACC-62 > 100 µM | SW-620 > 100 µM | M14 > 100 µM

CCNC(=O)COc1ccc(Br)cc1Br
inactive: OVCAR-4 > 100 µM | NCI-H522 > 100 µM | SF-539 > 100 µM | Malme-3M > 100 µM | SK-MEL-2 42.9 µM | CAKI-1 > 100 µM | A498 > 100 µM | HL-60 > 100 µM | OVCAR-3 > 100 µM | ACHN > 100 µM | RPMI-8226 > 100 µM | NCI-H460 > 100 µM | UACC-62 33.3 µM | SW-620 > 100 µM | M14 > 100 µM

Cc1ccc(NC(=O)C(=O)C(C#N)c2nc(-c3ccc(-c4ccccc4)cc3)cs2)c(C)c1 (stereo not drawn)
inactive: OVCAR-4 > 100 µM | SF-539 > 100 µM | Malme-3M > 100 µM | SK-MEL-2 > 100 µM | CAKI-1 > 100 µM | A498 > 100 µM | OVCAR-3 > 100 µM | ACHN > 100 µM | RPMI-8226 > 100 µM | NCI-H460 > 100 µM | TK-10 > 100 µM | UACC-62 > 100 µM | SW-620 17.4 µM | M14 > 100 µM

Cc1ccc(NC(=O)CC(=O)N2N=C(N(CCC#N)c3cccc(C)c3)CC2c2ccccc2)cc1 (stereo not drawn)
inactive: OVCAR-4 > 100 µM | NCI-H522 > 100 µM | SF-539 > 100 µM | Malme-3M > 100 µM | SK-MEL-2 > 100 µM | HL-60 > 100 µM | OVCAR-3 > 100 µM | ACHN > 100 µM | RPMI-8226 > 100 µM | NCI-H460 > 100 µM | UACC-62 > 100 µM | SW-620 > 100 µM | M14 > 100 µM

CC(C)N1C(C)[C@@H](c2ccccc2)O[P@@]1(=O)CC1=CCCCC1 (stereo partly drawn)
inactive: NCI-H522 > 100 µM | SF-539 > 100 µM | Malme-3M > 100 µM | SK-MEL-2 > 100 µM | A498 > 100 µM | HL-60 24.1 µM | OVCAR-3 79.3 µM | ACHN > 100 µM | RPMI-8226 49.1 µM | NCI-H460 > 100 µM | TK-10 > 100 µM | UACC-62 47.1 µM | SW-620 > 100 µM | M14 > 100 µM

NC(CCC(=O)Nc1ccc(O)cc1)C(=O)O (stereo not drawn)
inactive: OVCAR-4 > 100 µM | NCI-H522 > 100 µM | Malme-3M > 100 µM | SK-MEL-2 > 100 µM | CAKI-1 > 100 µM | A498 > 100 µM | HL-60 > 100 µM | OVCAR-3 > 100 µM | ACHN > 100 µM | RPMI-8226 > 100 µM | NCI-H460 > 100 µM | TK-10 > 100 µM | UACC-62 > 100 µM | SW-620 > 100 µM | M14 > 100 µM
